These are literature values, as cited in patent publication US10427959B2, “Method and system for the autonomous self-limiting generation of chlorine dioxide” (TRUOX, INC., priority 2016, dated 2019).

Read-outs that look alike come from different tables or passages of the source.

For the data set the following is noted: saturated aqueous solution.

As to `CC1(C)C(=O)N(Cl)C(=O)N1Br` [BCDMH, 1,3-bromo-chloro-5,5-dimethylhydantoin], the solubility (at 25° C.) was 0.2 wt %. With `CC1(C)C(=O)N(Br)C(=O)N1Br` [DBDMH, 1,3-dibromo-5,5-dimethylhydantoin], where the note is “at 20° C.”, the solubility is listed as 0.1 wt %.
